From patent publication US8329676B2, “Cycloalkane-containing sphingosine 1-phosphate agonists” (University of Virginia Patent Foundation, priority 2005, dated 2012)

What was measured:
blood lymphocytes = assay: Lymphopenia assay; type: in vivo, mice
Procedure: Pro-drug compounds (i.e., primary alcohols such as VPC01091) are dissolved in 2% hydroxypropyl beta-cyclodextrin and introduced into mice by oral gavage at doses from 0.01 to 30 mg/kg body weight. After 24 hours (or multiples thereof), the mice are lightly anesthetized and ca. 0.1 ml of blood is drawn from the orbital sinus. The number of lymphocytes (in thousands per microliter of blood; normal is 4-11) is determined using a Hemavet blood analyzer. In the histogram showing the four isomers of VPC01091, the 100% value for the vehicle treated mouse was 7.5 at 24 hours; at 96 hours it was 5. There were three mice/group, the strain was mixed sv129×C57BL/6. Active compounds (e.g., VPC01211) are dissolved in acidified DMSO at 20 mM, and diluted 1:20 into 2% hydroxypropyl beta-cyclodextrin in water with mixing. This solution is introduced into mice by intraperitoneal (i.p.) injection at doses of 0.01-10 mg/kg body weight.
FIG. 3 describes total blood lymphocyte count following single dose of VPC01091 or vehicle. […] Five mice per group, male, 10-11 week old sv129/C57B16 strain.
A dose response curve for VPC01091 in the lymphopenia assay is given as FIG. 4. FIG. 4 graphically summarizes oral administration (gavage) of VPC01091 in 2% hydroxypropyl beta-cyclodextrin, 3 mice per group (same strain as in FIG. 3).
This phosphorylation of these compounds is thought to be catalyzed in vivo by sphingosine kinase type 2 (SPHK2), which is encoded by the SPHK2 gene in mice.

Heart rate assay = type: in vivo; conditions: mice, intravenous, 3 mg/kg (FIG. 2)
Procedure: In the assay the test compound was administered via IV Dosing and the vehicle was 2% cyclodextrin.
Mice were dosed with VPC01091 (intravenous, 3 mg/kg) or vehicle (2% hydroxypropyl beta-cyclodextrin) and heart rate measured at the indicated times post dosing. Heart rate was captured in unrestrained, conscious animals using the ECGenie™ system.

human S1P1 receptor = target: T1, human S1P1 receptor (Homo sapiens, UniProt P21453); assay: GTPγS-35 binding assay, S1P1; type: biochemical; conditions: relative to S1P (FIG. 6)
T1 construct: expressed in transfected cells; host or cells: HEK293T (crude microsomes)
T1 sequence (P21453 whole entry): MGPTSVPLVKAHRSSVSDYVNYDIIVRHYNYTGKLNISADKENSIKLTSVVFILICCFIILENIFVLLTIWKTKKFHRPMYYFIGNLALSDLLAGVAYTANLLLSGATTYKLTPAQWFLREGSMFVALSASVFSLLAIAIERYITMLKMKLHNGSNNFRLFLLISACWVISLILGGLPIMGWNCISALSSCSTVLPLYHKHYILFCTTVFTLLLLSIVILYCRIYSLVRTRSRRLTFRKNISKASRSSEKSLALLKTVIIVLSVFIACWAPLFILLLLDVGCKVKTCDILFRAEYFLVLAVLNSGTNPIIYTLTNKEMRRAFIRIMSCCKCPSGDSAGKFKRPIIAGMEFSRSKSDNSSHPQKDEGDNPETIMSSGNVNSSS
T1 sequence (P04899 2-355 partner limits assumed): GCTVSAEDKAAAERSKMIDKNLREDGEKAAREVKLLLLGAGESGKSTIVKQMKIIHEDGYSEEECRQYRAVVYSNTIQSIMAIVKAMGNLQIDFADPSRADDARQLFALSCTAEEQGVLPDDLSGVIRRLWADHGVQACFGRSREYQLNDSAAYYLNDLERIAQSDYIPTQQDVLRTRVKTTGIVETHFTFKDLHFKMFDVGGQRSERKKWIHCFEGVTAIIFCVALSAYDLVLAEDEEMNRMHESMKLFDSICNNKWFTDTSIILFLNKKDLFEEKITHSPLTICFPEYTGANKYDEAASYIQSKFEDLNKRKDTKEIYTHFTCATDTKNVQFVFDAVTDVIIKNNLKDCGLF
T1 sequence (P62873 2-340 partner limits assumed): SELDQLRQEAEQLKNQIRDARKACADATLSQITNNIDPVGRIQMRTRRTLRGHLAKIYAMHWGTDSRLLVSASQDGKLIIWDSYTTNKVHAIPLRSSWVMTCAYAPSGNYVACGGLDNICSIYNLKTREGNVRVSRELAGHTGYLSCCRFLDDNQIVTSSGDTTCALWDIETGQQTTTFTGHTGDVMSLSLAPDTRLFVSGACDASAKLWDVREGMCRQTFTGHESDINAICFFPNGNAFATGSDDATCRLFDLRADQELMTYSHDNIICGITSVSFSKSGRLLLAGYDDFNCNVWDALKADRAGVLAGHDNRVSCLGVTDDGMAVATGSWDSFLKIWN
T1 sequence (P59768 2-68 partner limits assumed): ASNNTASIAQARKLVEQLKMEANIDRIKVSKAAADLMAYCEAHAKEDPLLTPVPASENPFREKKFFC
Procedure: This assay illustrates agonist activation of G protein coupled receptors (GPCRs) in isolation. The assay forces expression concomitantly of a recombinant GPCR (e.g., the S1P1-5 receptor) and each of the three subunits (typically, alphai2, beta1, gamma2) of a heterotrimeric G protein in a HEK293T cell by transfecting the cell with four plasmid DNAs encoding the respective proteins. About 60 hours after transfection the cells are harvested, opened, and the nucleus discarded. This allows for the preparation of a crude microsome from the remainder. Agonist (e.g., S1P) stimulation of the receptor-G protein complex on the microsomes results in the exchange of GTP for GDP on the alpha subunit in a dose-dependent manner. To detect the GTP-bound alpha subunit, we use a GTP analog (GTPγS-35), which is a radionuclide (sulfur-35) labeled phosphothionate, that is not hydrolyzed to GDP. The microsomes with the adherent G proteins are collected by filtration and the bound GTPγS-35 quantified in a liquid scintillation counter. […] Antagonist activity is detected as rightward shifts in the agonist dose-response curve in the presence of a fixed amount of antagonist. If the antagonist behaves competitively, the affinity of the receptor/antagonist pair (K1) can be determined.

[1] = target: T2, human S1P type 3 (S1P3) receptor (Homo sapiens, UniProt Q99500); assay: GTPγS-35 binding assay, S1P3; type: biochemical
T2 construct: expressed in transfected cells; host or cells: HEK293T (crude microsomes)
T2 sequence (Q99500 whole entry): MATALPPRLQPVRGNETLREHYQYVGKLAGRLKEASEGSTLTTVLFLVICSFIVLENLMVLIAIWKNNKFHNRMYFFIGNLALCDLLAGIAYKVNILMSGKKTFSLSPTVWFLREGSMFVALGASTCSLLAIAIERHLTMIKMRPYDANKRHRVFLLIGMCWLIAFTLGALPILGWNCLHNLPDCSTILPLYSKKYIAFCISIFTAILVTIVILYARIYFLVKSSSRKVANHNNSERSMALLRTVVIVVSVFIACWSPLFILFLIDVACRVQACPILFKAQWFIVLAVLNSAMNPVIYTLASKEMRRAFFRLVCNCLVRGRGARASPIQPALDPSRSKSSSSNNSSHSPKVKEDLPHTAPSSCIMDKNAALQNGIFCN
Procedure: The assay forces expression concomitantly of a recombinant GPCR (e.g., the S1P1-5 receptor) and each of the three subunits (typically, alphai2, beta1, gamma2) of a heterotrimeric G protein in a HEK293T cell by transfecting the cell with four plasmid DNAs encoding the respective proteins. About 60 hours after transfection the cells are harvested, opened, and the nucleus discarded. This allows for the preparation of a crude microsome from the remainder. Agonist (e.g., S1P) stimulation of the receptor-G protein complex on the microsomes results in the exchange of GTP for GDP on the alpha subunit in a dose-dependent manner. To detect the GTP-bound alpha subunit, we use a GTP analog (GTPγS-35), which is a radionuclide (sulfur-35) labeled phosphothionate, that is not hydrolyzed to GDP. The microsomes with the adherent G proteins are collected by filtration and the bound GTPγS-35 quantified in a liquid scintillation counter. The assay yields relative potency (EC50 values) and maximum effect (efficacy, Emax). Antagonist activity is detected as rightward shifts in the agonist dose-response curve in the presence of a fixed amount of antagonist. If the antagonist behaves competitively, the affinity of the receptor/antagonist pair (K1) can be determined.

human S1P4 receptor = target: T3, human S1P4 receptor (Homo sapiens, UniProt O95977); assay: GTPγS-35 binding assay, S1P4; type: biochemical; conditions: FIG. 10
T3 construct: expressed in transfected cells; host or cells: HEK293T (crude microsomes)
T3 sequence (O95977 whole entry): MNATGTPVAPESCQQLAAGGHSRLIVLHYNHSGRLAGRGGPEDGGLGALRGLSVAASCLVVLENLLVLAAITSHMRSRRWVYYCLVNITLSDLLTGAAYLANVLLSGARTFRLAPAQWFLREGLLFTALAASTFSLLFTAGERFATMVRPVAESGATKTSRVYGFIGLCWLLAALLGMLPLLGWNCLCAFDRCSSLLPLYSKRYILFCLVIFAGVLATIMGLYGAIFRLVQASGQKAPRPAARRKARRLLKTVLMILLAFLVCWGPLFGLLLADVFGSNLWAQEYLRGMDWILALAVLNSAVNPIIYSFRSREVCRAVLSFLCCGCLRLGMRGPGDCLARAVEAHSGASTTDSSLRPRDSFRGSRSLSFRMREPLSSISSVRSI
T3 sequence (P04899 2-355 partner limits assumed): as the sequence (P04899 2-355 partner limits assumed) above
T3 sequence (P62873 2-340 partner limits assumed): as the sequence (P62873 2-340 partner limits assumed) above
T3 sequence (P59768 2-68 partner limits assumed): as the sequence (P59768 2-68 partner limits assumed) above
Description: (§1) FIG. 10 graphically illustrates the results of a broken cell GTPγ^35S binding assay for the human S1P4 receptor. Compound ‘CA5-P’ is VPC01211. Compounds CA6-P and CA4-P are the corresponding cyclohexyl and cyclobutyl compounds.
(§2) This assay illustrates agonist activation of G protein coupled receptors (GPCRs) in isolation. The assay forces expression concomitantly of a recombinant GPCR (e.g., the S1P1-5 receptor) and each of the three subunits (typically, alphai2, beta1, gamma2) of a heterotrimeric G protein in a HEK293T cell by transfecting the cell with four plasmid DNAs encoding the respective proteins. About 60 hours after transfection the cells are harvested, opened, and the nucleus discarded. This allows for the preparation of a crude microsome from the remainder. Agonist (e.g., S1P) stimulation of the receptor-G protein complex on the microsomes results in the exchange of GTP for GDP on the alpha subunit in a dose-dependent manner. […] The microsomes with the adherent G proteins are collected by filtration and the bound GTPγS-35 quantified in a liquid scintillation counter. […] Antagonist activity is detected as rightward shifts in the agonist dose-response curve in the presence of a fixed amount of antagonist. If the antagonist behaves competitively, the affinity of the receptor/antagonist pair (K1) can be determined.

human S1P5 receptor = target: T4, human S1P5 receptor (Homo sapiens, UniProt Q9H228); assay: GTPγS-35 binding assay, S1P5; type: biochemical; conditions: FIG. 11
T4 construct: expressed in transfected cells; host or cells: HEK293T (crude microsomes)
T4 sequence (Q9H228 whole entry): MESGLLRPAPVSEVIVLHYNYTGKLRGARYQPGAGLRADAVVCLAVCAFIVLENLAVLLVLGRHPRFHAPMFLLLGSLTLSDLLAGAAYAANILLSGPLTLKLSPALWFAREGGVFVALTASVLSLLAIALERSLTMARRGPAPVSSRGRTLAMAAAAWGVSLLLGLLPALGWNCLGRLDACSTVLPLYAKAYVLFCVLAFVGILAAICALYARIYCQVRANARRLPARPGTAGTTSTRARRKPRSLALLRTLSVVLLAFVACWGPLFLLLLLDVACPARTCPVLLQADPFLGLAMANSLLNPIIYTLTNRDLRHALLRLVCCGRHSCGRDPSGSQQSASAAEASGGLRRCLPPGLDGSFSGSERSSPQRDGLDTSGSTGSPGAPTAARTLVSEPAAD
T4 sequence (P04899 2-355 partner limits assumed): as the sequence (P04899 2-355 partner limits assumed) above
T4 sequence (P62873 2-340 partner limits assumed): as the sequence (P62873 2-340 partner limits assumed) above
T4 sequence (P59768 2-68 partner limits assumed): as the sequence (P59768 2-68 partner limits assumed) above
Description: FIG. 11 graphically illustrates the results of a broken cell GTPγ^35S binding assay for the human S1P5 receptor. Compound ‘CA5-P’ is VPC01211. Compounds CA6-P and CA4-P are the corresponding cyclohexyl and cyclobutyl compounds.
as §2

human S1P3 receptor [2] = target: T5, human S1P3 receptor (Homo sapiens, UniProt Q99500); assay: Calcium mobilization assay in T24 cells overexpressing S1P3; type: cell-based; parameters: expressed in transfected cells; conditions: 10 μM test compound, FIG. 15
T5 sequence (Q99500 whole entry): as the sequence (Q99500 whole entry) above
Procedure: FIG. 15 is an illustration of the result of a calcium mobilization assay in T24 cells overexpressing the human S1P3 receptor in response to […] S1P in the presence of 10 μM VPC01211.

human S1P2 receptor [3] = target: T6, human S1P2 receptor (Homo sapiens, UniProt O95136); assay: GTPγS-35 binding assay, S1P2; type: biochemical; parameters: expressed in transfected cells; host or cells: HEK293T (crude microsomes); conditions: FIG. 8
T6 sequence (O95136 whole entry): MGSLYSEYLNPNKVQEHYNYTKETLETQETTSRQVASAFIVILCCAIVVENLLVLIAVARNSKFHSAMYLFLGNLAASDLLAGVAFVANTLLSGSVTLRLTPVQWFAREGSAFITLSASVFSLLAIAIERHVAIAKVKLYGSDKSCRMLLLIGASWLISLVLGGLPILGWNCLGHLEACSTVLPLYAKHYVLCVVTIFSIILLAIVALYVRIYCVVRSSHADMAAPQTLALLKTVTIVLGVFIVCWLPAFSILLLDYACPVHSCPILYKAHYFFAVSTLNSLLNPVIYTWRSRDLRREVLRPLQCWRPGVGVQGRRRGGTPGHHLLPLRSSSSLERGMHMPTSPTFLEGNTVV
Description: as §1, with “8” for “10”, “S1P2” for “S1P4”, “compounds. The ordinate represents percent GTPγ^35S binding and the abscissa represents log molar concentration of lipid.” for “compounds.”
as §2, with “remainder.” for “remainder. Agonist (e.g., S1P) stimulation of the receptor-G protein complex on the microsomes results in the exchange of GTP for GDP on the alpha subunit in a dose-dependent manner.”

human S1P2 receptor [4] = target: T6, human S1P2 receptor; assay: Calcium mobilization assay, CHO-K1 cells expressing S1P2; type: cell-based; parameters: expressed in transfected cells; host or cells: hamster CHO-K1, clonal population; conditions: FIG. 7
Procedure: FIG. 7 graphically illustrates the results of a calcium mobilization assay using CHO-K1 cells expressing recombinant human S1P2 receptor. […] The ordinate represents percent maximal calcium mobilization and the abscissa represents log molar concentration of lipid.
(§3) To measure calcium mobilization in response to agonist stimulation, cells were plated onto a 96 well plate, loaded with the calcium sensing dye Fluo-4AM and cells exposed to various concentrations of agonist for 3-5 minutes. Changes in fluorescence, which correlate with intracellular calcium mobilization, are detected using a FlexStation fluorimeter. Each agonist concentration was tested in triplicate.
FIG. 7: CHOK1 cells transfected with S1P2 receptor DNA

human S1P3 receptor [5] = target: T5, human S1P3 receptor; assay: Calcium mobilization assay, CHO-K1 cells expressing S1P3; type: cell-based; parameters: expressed in transfected cells; host or cells: hamster CHO-K1, clonal population; conditions: FIG. 9
Procedure: FIG. 9 graphically illustrates the results of a calcium mobilization assay using CHO-K1 cells expressing recombinant human S1P3 receptor.
as §3

human S1P3 receptor [6] = target: T5, human S1P3 receptor; assay: Schild plot of S1P dose response curves at S1P3; type: biochemical; parameters: expressed in transfected cells; host or cells: hamster CHO-K1, clonal population; conditions: FIGS. 12-14
Description: FIG. 12 is an illustration of a Schild plot for the results of S1P dose response curves at the human S1P3 receptor, at the indicated concentrations of test compound VPC01222.
FIG. 13 is an illustration of a Schild plot for the results of S1P dose response curves at the human S1P3 receptor, at the indicated concentrations of test compound VPC01211.
FIG. 14 is an illustration of a Schild plot for the results of S1P dose response curves at the human S1P3 receptor, at the indicated concentrations of test compound VPC01214.
as §2, with “discarded.” for “discarded. This allows for the preparation of a crude microsome from the remainder. Agonist (e.g., S1P) stimulation of the receptor-G protein complex on the microsomes results in the exchange of GTP for GDP on the alpha subunit in a dose-dependent manner.”

Structure (SMILES) | lymphopenia (total blood lymphocyte count) (blood lymphocytes; mice, oral gavage, single dose, 2% hydroxypropyl beta-cyclodextrin (FIG. 3)) | duration of lymphopenia (blood lymphocytes; mice, single ED95 dose) | lymphopenia in mice without a functional SPHK2 gene (blood lymphocytes; single oral dose, 24 hours (FIG. 5)) | effect on heart rate (Heart rate assay) | agonist activity at the S1P1 receptor (human S1P1 receptor) | activity at the S1P3 receptor (GTPγS binding) [1] | agonist activity at the S1P4 receptor (human S1P4 receptor) | agonist activity at the S1P5 receptor (human S1P5 receptor) | antagonism at S1P3 (rightward shift of S1P calcium response) (human S1P3 receptor [2]) | activity at the S1P2 receptor (GTPγS binding) (human S1P2 receptor [3]) | activity at the S1P2 receptor (calcium mobilization) (human S1P2 receptor [4]) | activity at the S1P3 receptor (calcium mobilization) (human S1P3 receptor [5]) | antagonism at S1P3 (rightward shifts in the S1P dose response curves) (human S1P3 receptor [6])
CCCCCCCCc1ccc(C2CCC(N)(CO)C2)cc1 (stereo not shown) [VPC01091, (1-amino-3-(4-octylphenyl)cyclopentyl)methanol] | profound, long lasting lymphopenia | lymphopenia for a week or more | no lymphopenia was observed | no effect on the heart rate | – | – | – | – | – | – | – | – | –
CCCCCCCCc1ccc(C2CCC(N)(COP(=O)(O)O)C2)cc1 (stereo not shown) [VPC01211, (1-amino-3-(4-octylphenyl)cyclopentyl)methyl dihydrogen phosphate] | – | – | – | – | partial agonists | negative, or inverse, agonists | full agonists | partial agonists | surmountable antagonism | inactive | inactive | inactive | surmountable antagonist
